# Patent publication US11382914B2, “Usage and dosage of therapeutic agents for endometriosis” (KISSEI PHARMACEUTICAL CO., LTD., priority 2016, dated 2022)
# Like-named read-outs stand apart in the source and are kept apart here.
# What was measured:
# [1] = system: patients with endometriosis; conditions: for Changes in average NRS for pelvic pain (regardless of menstruation) between the pre-treatment period and the time of the final assessment during treatment: oral once a day for 12 weeks
# Description: Clinical Trial 1 in Patients with Endometriosis (Double-Blind Parallel-Group Comparison Study)
# To 107 patients with endometriosis, Compound 2 at a dose of 50 mg (29 patients), 100 mg (26 patients) or 200 mg (28 patients) or a placebo (24 patients) was orally administered after breakfast once a day for 12 weeks. These groups are hereinafter referred to as a 50-mg administration group, a 100-mg administration group, a 200-mg administration group, and a placebo group. The administration was started from the second to fifth days of menstruation.
# As evaluation scales for safety, for example, the occurrence of an adverse event, the occurrence of a side effect, and vaginal bleeding were evaluated.
# [2] = system: patients with endometriosis; conditions: for Changes in average NRS for pelvic pain (regardless of menstruation) between the pre-treatment period and the time of final assessment during the treatment period: oral once a day for 8 weeks
# Description: Clinical Trial 2 in Patients with Endometriosis (Randomized Non Blind Parallel-Group Comparison Study)
# To 21 patients with endometriosis, Compound 2 was administered orally at a dose of 75 mg (11 patients) or 150 mg (10 patients) after breakfast once a day for 8 weeks. These groups are hereinafter referred to as a 75-mg administration group and a 150-mg administration group. The administration was started from the second to fifth days of menstruation.
# [3] = long-term study; cited from earlier work
compound,measurement,setting,value
"3-[2-fluoro-5-(2,3-difluoro-6-methoxybenzyloxy)-4-methoxyphenyl]-2,4-dioxo-1,2,3,4-tetrahydrothieno[3,4-d]pyrimidine-5-carboxylic acid choline salt [Compound 2]",Percentage of patients who had menstruation during treatment (Yes),[1]; 50 mg,72.4%
same,Percentage of patients who had no menstruation during treatment (No),[1]; 50 mg,27.6%
same,Percentage of patients who had menstruation during treatment (Yes),[1]; 100 mg,26.9%
same,Percentage of patients who had no menstruation during treatment (No),[1]; 100 mg,73.1%
same,Percentage of patients who had menstruation during treatment (Yes),[1]; 200 mg,3.6%
same,Percentage of patients who had no menstruation during treatment (No),[1]; 200 mg,96.4%
same,"Number of cases where side effects associated with hypoestrogenism (hot flashes, headache, dizziness, hyperhidrosis) were developed",[1]; 50-mg administration group (29 patients),9
same,Changes in average NRS for pelvic pain (regardless of menstruation) between the pre-treatment period and the time of the final assessment during treatment,[1]; 50-mg administration group,−1.13
same,E2 concentrations during treatment,[1]; 100-mg administration group,lower than 20 pg/mL
same,"Number of cases where side effects associated with hypoestrogenism (hot flashes, headache, dizziness, hyperhidrosis) were developed",[1]; 100-mg administration group (26 patients),12
same,Changes in average NRS for pelvic pain (regardless of menstruation) between the pre-treatment period and the time of the final assessment during treatment,[1]; 100-mg administration group,−1.27
same,E2 concentrations during treatment,[1]; 200-mg administration group,lower than 20 pg/mL
same,"Number of cases where side effects associated with hypoestrogenism (hot flashes, headache, dizziness, hyperhidrosis) were developed",[1]; 200-mg administration group (28 patients),28
same,Changes in average NRS for pelvic pain (regardless of menstruation) between the pre-treatment period and the time of the final assessment during treatment,[1]; 200-mg administration group,−1.33
same,E2 secretion during treatment,"[1]; all groups (50, 100, 200 mg)",Suppression of E2 secretion was observed
same,Improvement of average NRS for pelvic pain as compared to the placebo group,"[1]; all groups (50, 100, 200 mg) vs placebo",Significant improvements
same,"Temporal pain, observations by others, use rate of an analgesic agent, sizes of an ovarian chocolate cyst and the uterus, as compared to the placebo group","[1]; groups administered 50, 100, 200 mg vs placebo",improved
same,Occurrence of side effects associated with hypoestrogenism,[1]; groups with E2 concentration of 20 pg/mL and/or more during treatment,28.2%
same,Occurrence of side effects associated with hypoestrogenism,[1]; groups with E2 concentration of less than 20 pg/mL during treatment,54.8%
same,Changes in average NRS for pelvic pain (regardless of menstruation) between the pre-treatment period and the time of final assessment during the treatment period,[2]; 75-mg administration group,−0.94
same,Median E2 concentrations during treatment,"[2]; 75-mg administration group, week 4",35 pg/mL
same,Median E2 concentrations during treatment,"[2]; 75-mg administration group, week 8",24 pg/mL
same,Changes in average NRS for pelvic pain (regardless of menstruation) between the pre-treatment period and the time of final assessment during the treatment period,[2]; 150-mg administration group,−1.68
same,Median E2 concentrations during treatment,"[2]; 150-mg administration group, week 4",10 pg/mL
same,Median E2 concentrations during treatment,"[2]; 150-mg administration group, week 8",10 pg/mL
same,Improvement of average NRS for pelvic pain,"[2]; all groups (75, 150 mg)",tendency of improvement
"C[C@]12CCC3=C4CCC(=O)C=C4CC[C@H]3[C@@H]1CC[C@@]2(O)CC#N [Dienogest, dienogest]",Incidence of atypical genital bleeding as a side effect,[3],71.9%
